Experimental data reported in ChEMBL document CHEMBL1126955, “Substituted thiopyrano[2,3,4-c,d]indoles as potent, selective, and orally active inhibitors of 5-lipoxygenase. Synthesis and biological evaluation of L-691,816” (J Med Chem, 1993).
Blank lines part the entries; values can stand above or below the compound they belong to.

Tests used:
[1] = Peak concentration in rat plasma was determined; type: ADME, organism-based
[2] = Maximum time taken for compound to reach peak concentration in rat plasma; value ranges from 1-2 hrs; type: ADME, organism-based
[3] = molecular target: T1, Polyunsaturated fatty acid 5-lipoxygenase (Rattus norvegicus, UniProt P12527); assay: In vitro test for inhibition of 5-lipoxygenase in cell-free preparations from rat PMN leukocytes
T1 sequence (P12527 whole entry): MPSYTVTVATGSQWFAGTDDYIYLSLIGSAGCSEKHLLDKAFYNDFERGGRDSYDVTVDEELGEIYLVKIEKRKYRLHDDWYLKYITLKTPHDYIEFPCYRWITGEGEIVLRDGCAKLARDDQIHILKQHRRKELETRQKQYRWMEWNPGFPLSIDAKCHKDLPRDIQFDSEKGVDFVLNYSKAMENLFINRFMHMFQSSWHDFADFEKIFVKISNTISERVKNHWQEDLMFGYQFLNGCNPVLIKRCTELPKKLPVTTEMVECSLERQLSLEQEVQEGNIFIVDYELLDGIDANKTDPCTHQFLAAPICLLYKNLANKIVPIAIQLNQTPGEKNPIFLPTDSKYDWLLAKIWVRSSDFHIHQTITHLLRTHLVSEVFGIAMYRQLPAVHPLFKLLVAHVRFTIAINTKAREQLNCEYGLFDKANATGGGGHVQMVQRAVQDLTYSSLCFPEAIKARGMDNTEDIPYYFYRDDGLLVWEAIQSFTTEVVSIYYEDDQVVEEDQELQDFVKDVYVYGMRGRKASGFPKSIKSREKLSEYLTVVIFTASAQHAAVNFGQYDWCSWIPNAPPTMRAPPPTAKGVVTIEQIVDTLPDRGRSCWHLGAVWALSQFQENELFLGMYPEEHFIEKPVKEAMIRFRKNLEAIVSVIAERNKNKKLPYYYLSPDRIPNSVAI

[4] = Bioavailability in rat (dose 20 mg/kg p.o. in 1% methocel, and 5 mg/kg i.v. in PEG400); type: ADME, organism-based; settings: in vivo, po
Rattus norvegicus [5] = species on record: Rattus norvegicus; assay: Tested for percent inhibition of dyspnea duration in hyperreactive rat model; type: functional
[6] = molecular target: T2, Polyunsaturated fatty acid 5-lipoxygenase (Homo sapiens, UniProt P09917); assay: In vitro inhibition of LTB4 biosynthesis in [Ca(2+)]-ionophore-activated human polymorphonuclear leukocytes; type: functional
T2 sequence (P09917 whole entry): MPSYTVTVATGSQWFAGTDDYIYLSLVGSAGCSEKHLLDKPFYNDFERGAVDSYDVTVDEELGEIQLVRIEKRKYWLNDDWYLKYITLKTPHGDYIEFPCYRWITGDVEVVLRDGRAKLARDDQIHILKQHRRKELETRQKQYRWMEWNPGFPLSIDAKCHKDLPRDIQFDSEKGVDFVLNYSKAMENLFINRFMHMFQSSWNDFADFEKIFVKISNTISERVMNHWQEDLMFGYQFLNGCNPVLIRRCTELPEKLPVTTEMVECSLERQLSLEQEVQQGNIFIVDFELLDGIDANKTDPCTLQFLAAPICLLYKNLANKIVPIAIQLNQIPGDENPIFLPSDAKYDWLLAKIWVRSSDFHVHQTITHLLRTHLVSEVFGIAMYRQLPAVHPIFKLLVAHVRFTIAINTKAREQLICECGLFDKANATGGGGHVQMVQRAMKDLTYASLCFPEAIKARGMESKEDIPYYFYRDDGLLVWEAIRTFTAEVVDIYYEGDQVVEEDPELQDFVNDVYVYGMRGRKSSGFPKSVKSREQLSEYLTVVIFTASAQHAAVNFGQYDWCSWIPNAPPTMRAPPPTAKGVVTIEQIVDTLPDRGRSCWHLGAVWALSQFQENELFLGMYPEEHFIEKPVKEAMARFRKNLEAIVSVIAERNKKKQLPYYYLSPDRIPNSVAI

Rattus norvegicus [7] = species on record: Rattus norvegicus; assay: Tested for antigen-induced dyspnea in hyperreactive rat model (2 hr pretreatment); type: functional
Monkey [8] = assay: Changes in airway resistance after administration of 0.3 mg/kg in squirrel monkey; type: functional
Monkey [9] = assay: Changes in dynamic compliance after administration of 0.3 mg/kg in squirrel monkey (not significant); type: functional
Rattus norvegicus [10] = species on record: Rattus norvegicus; assay: Tested for ex-vivo inhibition of leukotriene B4 biosynthesis in rat whole blood; type: functional, organism-based
[11] = molecular target: T2, Polyunsaturated fatty acid 5-lipoxygenase; assay: Tested for inhibition of 5-HPETE production by human 5-LO
Monkey [12] = assay: Changes in dynamic compliance after administration of 0.3 mg/kg in squirrel monkey; type: functional
[13] = Rate of enzyme inactivation for the compound was determined
Monkey [14] = assay: Changes in airway resistance after administration of 1 mg/kg in squirrel monkey; type: functional
Homo sapiens = species on record: Homo sapiens; assay: Tested for inhibition of leukotriene B4 synthesis in human PMN leukocytes at 5*10e5 cells/mL concentration; type: functional, cell-based
Rattus norvegicus [15] = species on record: Rattus norvegicus; assay: Tested for antigen-induced dyspnea in hyperreactive rat model (2 hours pretreatment); type: functional
[16] = molecular target: T1, Polyunsaturated fatty acid 5-lipoxygenase; assay: Tested for inhibition of 5-HPETE production by rat 5-LO; value ranges from 16-36 nM
Monkey [17] = assay: Changes in dynamic compliance after administration of 1 mg/kg in squirrel monkey; type: functional
[18] = Maximum time taken for compound to reach peak concentration in rat plasma; type: ADME, organism-based
[19] = molecular target: T3, Arachidonate 12-lipoxygenase (Sus scrofa, UniProt P16469); assay: Tested for inhibition against porcine 12-LO
T3 sequence (P16469 whole entry): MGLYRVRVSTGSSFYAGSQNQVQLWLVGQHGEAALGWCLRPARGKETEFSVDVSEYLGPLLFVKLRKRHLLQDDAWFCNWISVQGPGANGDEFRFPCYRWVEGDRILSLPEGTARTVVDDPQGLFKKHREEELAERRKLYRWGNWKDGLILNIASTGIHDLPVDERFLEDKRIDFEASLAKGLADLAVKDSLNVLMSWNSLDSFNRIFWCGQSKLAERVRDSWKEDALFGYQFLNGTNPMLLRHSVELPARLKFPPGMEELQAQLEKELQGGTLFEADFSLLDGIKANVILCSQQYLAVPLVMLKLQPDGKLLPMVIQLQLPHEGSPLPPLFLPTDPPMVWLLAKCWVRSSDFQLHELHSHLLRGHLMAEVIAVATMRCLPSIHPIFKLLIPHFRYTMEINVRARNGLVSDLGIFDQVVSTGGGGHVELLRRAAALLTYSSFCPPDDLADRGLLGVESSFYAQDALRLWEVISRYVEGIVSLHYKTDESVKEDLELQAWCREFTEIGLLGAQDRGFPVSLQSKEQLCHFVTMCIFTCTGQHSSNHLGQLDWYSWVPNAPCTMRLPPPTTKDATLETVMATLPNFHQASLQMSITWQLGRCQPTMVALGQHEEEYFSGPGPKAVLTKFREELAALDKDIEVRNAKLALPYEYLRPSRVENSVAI

Rattus norvegicus [20] = species on record: Rattus norvegicus; assay: Tested for inhibition of leukotriene B4 in rat pleurisy model (8 hours pretreatment); type: functional
[21] = molecular target: Prostaglandin G/H synthase (cyclooxygenase) (Ovis aries) (UniProt P05979+P79208); assay: Tested for inhibition against ram seminal vesicle Prostaglandin G/H synthase at a concentration of 10 uM; type: tissue-based
Sequence of Prostaglandin G/H synthase (cyclooxygenase) (Ovis aries) (P05979 whole entry, looked up): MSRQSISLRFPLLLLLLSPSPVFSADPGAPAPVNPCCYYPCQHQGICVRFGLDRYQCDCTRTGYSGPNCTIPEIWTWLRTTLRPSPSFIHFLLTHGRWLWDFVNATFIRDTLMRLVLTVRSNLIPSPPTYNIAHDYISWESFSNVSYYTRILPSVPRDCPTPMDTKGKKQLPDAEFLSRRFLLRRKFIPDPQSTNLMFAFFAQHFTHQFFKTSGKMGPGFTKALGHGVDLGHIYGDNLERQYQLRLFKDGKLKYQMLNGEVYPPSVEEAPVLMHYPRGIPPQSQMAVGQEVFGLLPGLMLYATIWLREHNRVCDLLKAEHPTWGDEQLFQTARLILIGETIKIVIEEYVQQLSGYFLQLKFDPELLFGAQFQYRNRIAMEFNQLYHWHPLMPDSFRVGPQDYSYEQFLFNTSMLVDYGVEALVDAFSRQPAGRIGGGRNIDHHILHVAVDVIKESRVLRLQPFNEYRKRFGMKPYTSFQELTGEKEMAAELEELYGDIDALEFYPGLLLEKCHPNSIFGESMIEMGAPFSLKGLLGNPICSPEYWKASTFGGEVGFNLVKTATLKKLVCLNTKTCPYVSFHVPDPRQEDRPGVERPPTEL
Sequence of Prostaglandin G/H synthase (cyclooxygenase) (Ovis aries) (P79208 whole entry, looked up): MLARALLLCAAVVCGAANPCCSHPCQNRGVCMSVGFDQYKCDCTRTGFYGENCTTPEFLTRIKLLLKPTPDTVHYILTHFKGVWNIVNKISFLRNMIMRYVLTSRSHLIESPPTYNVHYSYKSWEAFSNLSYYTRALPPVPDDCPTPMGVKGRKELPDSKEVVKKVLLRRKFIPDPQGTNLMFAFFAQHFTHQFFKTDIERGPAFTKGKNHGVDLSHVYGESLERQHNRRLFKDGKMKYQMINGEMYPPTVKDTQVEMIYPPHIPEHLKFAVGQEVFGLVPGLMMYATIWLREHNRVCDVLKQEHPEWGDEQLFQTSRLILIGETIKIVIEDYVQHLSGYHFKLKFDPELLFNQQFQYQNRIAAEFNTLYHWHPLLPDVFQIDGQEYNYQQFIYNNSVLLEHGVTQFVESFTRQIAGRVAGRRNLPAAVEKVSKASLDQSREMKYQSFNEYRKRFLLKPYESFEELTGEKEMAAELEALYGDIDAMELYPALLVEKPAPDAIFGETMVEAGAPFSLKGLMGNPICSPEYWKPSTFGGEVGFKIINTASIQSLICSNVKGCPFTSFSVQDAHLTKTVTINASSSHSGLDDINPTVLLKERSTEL

Cmax [1]: 8 µM | Tmax [2]: 1 h | IC50 [3]: 16 nM | bioavailability [4]: 36% | IC50 [6]: 3 nM
Structure (SMILES): CC1Cc2c(CCc3ccc(-c4ccccc4)cn3)ccc3c2c(c(CC(C)(C)Cc2nnn[nH]2)n3Cc2ccc(Cl)cc2)S1 (stereo not drawn)
Inhibition (Rattus norvegicus [5]): 37%

Structure (SMILES): CC(C)(C)Sc1c(CC(C)(C)C(=O)O)n(Cc2ccc(Cl)cc2)c2ccc(OCc3ccc4ccccc4n3)cc12 [QUIFLAPON]
ED50 (Rattus norvegicus [7]): 0.16 mg/kg | RL (Monkey [8]): 44% | Cdyn (Monkey [9]): 46%

IC50 (Rattus norvegicus [10]): 1500 nM | IC50 [11]: 75 nM | Cmax [1]: 10 µM | kinact [13]: 0.009 s⁻¹ | IC50 [3]: 17 nM | IC50 (Homo sapiens): 10 nM | bioavailability [4]: 40% | IC50 [16]: 16 nM | Tmax [18]: 6 h | IC50 [19]: 2800 nM | inhibition [21]: 59% | IC50 [6]: 8 nM
Structure (SMILES): CC1Cc2c(OCc3ccc(-c4ccccc4)cn3)ccc3c2c(c(CC(C)(C)Cc2nnn[nH]2)n3Cc2ccc(Cl)cc2)S1 (stereo not drawn)
Cdyn (Monkey [12]): -11.2% | RL (Monkey [14]): 12.6% | ED50 (Rattus norvegicus [15]): 0.1 mg/kg | Cdyn (Monkey [17]): -9.2% | Inhibition (Rattus norvegicus [5]): 70% | ED50 (Rattus norvegicus [20]): 1.9 mg/kg | RL (Monkey [8]): 17.5%
